Test results: publication PMC12396409, “Screening and hit evaluation of a microbial metabolite library against the pathogenic Plasmodium falciparum and Toxoplasma gondii parasites” (International Journal for Parasitology: Drugs and Drug …, 2025)
Where two headings read alike, the source gives them in different places. Where a SMILES comes first, the peptide text is derived from it. Bridges are numbered along the chain shown (N, C = ends). The star is where a group is joined. X2 = CCCCCCCCCCCC(O)CC(=O)*

Columns and labels:
[1] = system: T. gondii RH strain (RH-Tub-eYFP) tachyzoites; assay: microbe, parasite or virus in culture; assay type: cell-based, Toxoplasma gondii; conditions: 72 h; for percent parasite growth at 2 µg/mL: Toxoplasma gondii
[2] = system: P. falciparum 3D7 parasites; assay: P. falciparum growth inhibition assay, 1-cycle (72 h treatment), SYBR DNA staining (library screen at 2 μg/mL and dose-response); assay type: cell-based, Plasmodium falciparum; conditions: for activity at 2 µg/mL: Plasmodium falciparum, 3D7
[3] = system: P. falciparum 3D7 parasites; assay: P. falciparum growth inhibition assay, 2-cycle (120 h treatment), delayed-death screen and dose-response; assay type: cell-based, Plasmodium falciparum; conditions: for activity at 2 µg/mL: Plasmodium falciparum, 3D7
[4] = T. gondii, parasite screen at 2 μg/mL, % growth, replicate 1
[5] = T. gondii, parasite screen at 2 μg/mL, % growth, replicate 2
[6] = P. falciparum 3D7, 72 h, parasite screen at 2 μg/mL, % growth, replicate 1
[7] = P. falciparum 3D7, 72 h, parasite screen at 2 μg/mL, % growth, replicate 2
[8] = P. falciparum 3D7, 120 h, parasite screen at 2 μg/mL, % growth, replicate 1
[9] = P. falciparum 3D7, 120 h, parasite screen at 2 μg/mL, % growth, replicate 2
[10] = library screen at 2 μg/mL, % growth, replicate 1
[11] = library screen at 2 μg/mL, % growth, replicate 2
[12] = library screen at 2 μg/mL, 72 h, % growth, replicate 1
[13] = library screen at 2 μg/mL, 72 h, % growth, replicate 2
[14] = library screen at 2 μg/mL, 120 h, % growth, replicate 1
[15] = library screen at 2 μg/mL, 120 h, % growth, replicate 2
[16] = T. gondii, screen at 2 μg/mL, replicate 1
[17] = T. gondii, screen at 2 μg/mL, replicate 2
[18] = P. falciparum, 72 h, screen at 2 μg/mL, replicate 1
[19] = P. falciparum, 72 h, screen at 2 μg/mL, replicate 2
[20] = P. falciparum, 120 h, screen at 2 μg/mL, replicate 1
[21] = P. falciparum, 120 h, screen at 2 μg/mL, replicate 2
[22] = T. gondii, parasite screen 2 μg/mL, % growth, replicate 1, read-out: Tg_72h_%Growth_Rep1
[23] = T. gondii, parasite screen 2 μg/mL, % growth, replicate 2, read-out: Tg_72h_%Growth_Rep2
[24] = P. falciparum, 72 h, parasite screen 2 μg/mL, % growth, replicate 1, read-out: Pf_72h_%Growth_Rep1
[25] = P. falciparum, 72 h, parasite screen 2 μg/mL, % growth, replicate 2, read-out: Pf_72h_%Growth_Rep2
[26] = P. falciparum, 120 h, parasite screen 2 μg/mL, % growth, replicate 1, read-out: Pf_120h_%Growth_Rep1
[27] = P. falciparum, 120 h, parasite screen 2 μg/mL, % growth, replicate 2, read-out: Pf_120h_%Growth_Rep2

`OC[C@H]1O[C@@H](n2cnc3c2N=CNC[C@H]3O)C[C@@H]1O` [BIA-P1273] gave a Tg_72h_%Growth_Rep1 [1, 4] of 120.62%, a Tg_72h_%Growth_Rep2 [1, 5] of 91.66% and a Pf_72h_%Growth_Rep1 [2, 6] of 69.65%. For the same compound, the Pf_72h_%Growth_Rep2 [2, 7] was 72.25%, the Pf_120h_%Growth_Rep1 [3, 8] was 57.41% and the Pf_120h_%Growth_Rep2 [3, 9] was 140.11%.

`COC(=O)C1(O)CC2OC1(C)n1c3ccccc3c3c4c(c5c6ccccc6n2c5c31)CNC4=O` (stereo not drawn) [BIA-K1225] gave a Tg_72h_%Growth_Rep1 ([1]; T. gondii RH, library screen at 2 μg/mL, % growth, replicate 1) of -1.01%, a Tg_72h_%Growth_Rep2 ([1]; T. gondii RH, library screen at 2 μg/mL, % growth, replicate 2) of 0.85% and a Pf_72h_%Growth_Rep1 ([2]; P. falciparum 3D7, 72 h, library screen at 2 μg/mL, % growth, replicate 1) of 4.93%. The Pf_72h_%Growth_Rep2 ([2]; P. falciparum 3D7, 72 h, library screen at 2 μg/mL, % growth, replicate 2) was 0.48%, the Pf_120h_%Growth_Rep1 ([3]; P. falciparum 3D7, 120 h, library screen at 2 μg/mL, % growth, replicate 1) was 29.46% and the Pf_120h_%Growth_Rep2 ([3]; P. falciparum 3D7, 120 h, library screen at 2 μg/mL, % growth, replicate 2) was 12.07%.

`CC[C@H]1OC(=O)[C@H](C)[C@@H](O[C@H]2C[C@@](C)(OC)[C@@H](O)[C@H](C)O2)[C@H](C)[C@@H](O[C@@H]2O[C@H](C)C[C@H](N(C)C)[C@H]2O)[C@@]2(C)C[C@@H](C)[C@@]3(O[C@@]1(C)[C@H](O)[C@H]3C)O2` [Anhydroerythromycin A] showed a Tg_72h_%Growth_Rep1 [1, 10] of 129.02%, a Tg_72h_%Growth_Rep2 [1, 11] of 98.86% and a Pf_72h_%Growth_Rep1 [2, 12] of 84.47%. For the same compound, the Pf_72h_%Growth_Rep2 [2, 13] was 88.69%, the Pf_120h_%Growth_Rep1 [3, 14] was 87.25% and the Pf_120h_%Growth_Rep2 [3, 15] was 85.54%.

`O=c1[nH]c2ccccc2c(-c2cccc(O)c2)c1O` [Viridicatol] gave a Tg_72h_%Growth_Rep1 [1, 16] of 112.17%, a Tg_72h_%Growth_Rep2 [1, 17] of 75.26% and a Pf_72h_%Growth_Rep1 [2, 18] of 94.32%. It also gave a Pf_72h_%Growth_Rep2 [2, 19] of 122.09%, a Pf_120h_%Growth_Rep1 [3, 20] of 110.38% and a Pf_120h_%Growth_Rep2 [3, 21] of 105.05%.

`CC1(C)C[C@]23[C@@H]4COC(=O)[C@H]2CC[C@H]1[C@@H]3CC4=O` [Quadrone] gave a percent parasite growth at 2 µg/mL [1, 22] of 48.4%, a percent parasite growth at 2 µg/mL [1, 23] of 61.5% and an activity at 2 µg/mL [2, 24] of 19%. It also gave an activity at 2 µg/mL [2, 25] of 18.9%, an activity at 2 µg/mL [3, 26] of 7% and an activity at 2 µg/mL [3, 27] of 13.5%.

`COc1ccc(C[C@H](N)C(=O)N[C@H]2[C@@H](O)[C@H](n3cnc4c(N(C)C)ncnc43)O[C@@H]2CO)cc1` [Puromycin] showed a percent parasite growth at 2 µg/mL [1, 22] of -0.59%, a percent parasite growth at 2 µg/mL [1, 23] of 1.12% and an activity at 2 µg/mL [2, 24] of 1.82%. The activity at 2 µg/mL [2, 25] was 1.65%, the activity at 2 µg/mL [3, 26] was -0.01% and the activity at 2 µg/mL [3, 27] was 7.14%.

`CCCC[C@@H](C)[C@@H](OC(=O)C[C@@H](CC(=O)O)C(=O)O)[C@H](C[C@@H](C)C[C@H](O)CCCC[C@@H](O)C[C@H](O)[C@H](C)N)OC(=O)C[C@@H](CC(=O)O)C(=O)O` [Fumonisin B1] gave a Tg_72h_%Growth_Rep1 [1, 10] of 135.48%, a Tg_72h_%Growth_Rep2 [1, 11] of 98.34% and a Pf_72h_%Growth_Rep1 [2, 12] of 90.20%. For the same compound, the Pf_72h_%Growth_Rep2 [2, 13] was 119.39%, the Pf_120h_%Growth_Rep1 [3, 14] was 97.02% and the Pf_120h_%Growth_Rep2 [3, 15] was 120.58%.

`CCCCCCCCCCCC(O)CC(=O)NC(CC(C)C)C(=O)NC(CCC(=O)O)C(=O)NC1C(=O)NC(C(C)C)C(=O)NC(CC(C)C)C(=O)NC(CO)C(=O)NC(CC(C)C)C(=O)NC(CC(C)C)C(=O)NC(CO)C(=O)NC(C(C)C)C(=O)OC1C` (stereo not drawn) [BIA-O1431] (X2-LETVLSLLSV; ester 3-C; configuration not given here) gave a Tg_72h_%Growth_Rep1 [1, 4] of 138.54%, a Tg_72h_%Growth_Rep2 [1, 5] of 91.95% and a Pf_72h_%Growth_Rep1 [2, 6] of 80.05%. The Pf_72h_%Growth_Rep2 [2, 7] was 103.50%, the Pf_120h_%Growth_Rep1 [3, 8] was 94.38% and the Pf_120h_%Growth_Rep2 [3, 9] was 109.58%.

`Cn1ncnc2c(=O)n(C)c(=O)nc1-2` [Toxoflavin] showed a Tg_72h_%Growth_Rep1 [1, 16] of 3.96%, a Tg_72h_%Growth_Rep2 [1, 17] of 6.88% and a Pf_72h_%Growth_Rep1 [2, 18] of 6.97%. It also gave a Pf_72h_%Growth_Rep2 [2, 19] of -1.92%, a Pf_120h_%Growth_Rep1 [3, 20] of 16.11% and a Pf_120h_%Growth_Rep2 [3, 21] of 20.32%.

With `CC[C@@H]1/C=C(\C)C[C@H](C)C[C@H](OC)[C@H]2O[C@@](O)(C(=O)C(=O)N3CCCC[C@H]3C(=O)O[C@H](/C(C)=C/[C@@H]3CC[C@@H](O)[C@H](OC)C3)[C@H](C)[C@@H](O)CC1=O)[C@H](C)C[C@@H]2OC` [Ascomycin] the percent parasite growth at 2 µg/mL ([1]; library screen at 2 μg/mL, % growth, replicate 1, read-out: Tg_72h_%Growth_Rep1) was 79.9%, the percent parasite growth at 2 µg/mL ([1]; library screen at 2 μg/mL, % growth, replicate 2, read-out: Tg_72h_%Growth_Rep2) was 79.4% and the activity at 2 µg/mL ([2]; library screen at 2 μg/mL, 72 h, % growth, replicate 1, read-out: Pf_72h_%Growth_Rep1) was 44.9%. The activity at 2 µg/mL ([2]; library screen at 2 μg/mL, 72 h, % growth, replicate 2, read-out: Pf_72h_%Growth_Rep2) was 50.6%, the activity at 2 µg/mL ([3]; library screen at 2 μg/mL, 120 h, % growth, replicate 1, read-out: Pf_120h_%Growth_Rep1) was 70.5% and the activity at 2 µg/mL ([3]; library screen at 2 μg/mL, 120 h, % growth, replicate 2, read-out: Pf_120h_%Growth_Rep2) was 40.4%.
